The values below come from patent publication US5977442A, “Salicylic acid induced map kinase and its use for enhanced disease resistance in plants” (priority 1997, dated 1999).

What is called IC50 is the concentration that gives 50% inhibition. The term Vmax denotes the rate approached at saturating substrate. As usually defined, the Km is the substrate concentration at which the rate is half of its maximum.

Series [1] has as its system p48 SIP kinase. As to the kind of experiment: In-gel kinase activity assay (MBP substrate) in extracts of treated tobacco suspension cells: activation of p48 SIP kinase. Format: cell-based, Nicotiana tabacum cv Xanthi nc. The following applies: tobacco suspension cells; for activation of 48 kDa (p48 SIP) kinase: 250 μM, MBP substrate; for duration of SIP kinase activation relative to SA: data not shown for analogues. Here is the method:
The cell suspension culture was derived from callus tissue originated from leaves of Nicotiana tabacum cv Xanthi nc and grown in MS medium supplemented with 1 mg/L α-naphthaleneacetic acid, 0.1 mg/L 2,4-dichlorophenoxyacetic acid, 0.1 mg/L benzyladenine, and 3% sucrose. Log phase cells were used three days after a 1:10 dilution. Treatment with H2 O2, SA and its analogues was performed in the original flasks in the dark to avoid any stresses associated with transfer. At various times, 10 mL cells (approximately 0.2 to 0.3 g fresh weight of cells) were harvested by filtration. The cells were quickly frozen in liquid nitrogen and stored at -80° C. until analysis.
Leaf discs were first ground to a fine powder in 1.5 ml microcentrifuge tubes using small plastic pestles. After adding 0.25 mL extraction buffer (100 mM Hepes, pH 7.5, 5 mM EDTA, 5 mM EGTA, 10 mM DTT, 10 mM Na3 VO4, 10 mM NaF, 50 mM β-glycerolphosphate, 1 mM phenylmethylsulfonyl fluoride, 5 μg/mL antipain, 5 μg/mL aprotinin, 5 μg/mL leupeptin, 10% glycerol, 7.5% polyvinylpolypyrrolidone), the mixture was sonicated for 15 seconds with a W-375 Sonicator (Heat System-Ultrasonics, Inc., N.Y.) fitted with a microprobe at setting 4 and 80% duty cycle. To prepare extracts from treated cells, cells were mixed with two volumes (w/v) of extraction buffer and were then sonicated twice for 15 seconds each in 1.5 mL microcentrifuge tube. After centrifugation at 13,000 rpm for 20 minutes, supernatants were transferred into clean tubes, quickly frozen in liquid nitrogen and stored at -80° C.
The in-gel kinase assay was performed as described previously (Zhang et al., 1993). Extracts containing 10 μg protein were electrophoresed on 10% SDS-polyacrylamide gels imbedded with either 1 mg/mL of casein, 1 mg/mL histone (Type III-SS, Sigma, MO), 1 mg/mL BSA, or 0.25 mg/mL of MBP in the separating gel as substrate for the kinase. After electrophoresis, SDS was removed by washing the gel with washing buffer (25 mM Tris, pH 7.5, 0.5 mM DTT, 0.1 mM Na3 VO4, 5 mM NaF, 0.5 mg/mL BSA, 0.1% Triton X-100 [v/v]). The buffer was changed three times, each for 30 minutes at room temperature. The kinases were allowed to renature in 25 mM Tris, pH 7.5, 1 mM DTT, 0.1 mM Na3 VO4, 5 mM NaF at 4° C. overnight with three changes of buffer. The gel was then incubated at room temperature in 30 mL reaction buffer (25 mM Tris, pH 7.5, 2 mM EGTA, 12 mM MgCl2, 1 mM DTT, 0.1 mM Na3 VO4) with 200 nM ATP plus 50 μCi γ-^32 P-ATP (3000 Ci/mmole) for 60 minutes. The reaction was stopped by transferring the gel into 5% TCA (w/v)/1% NaPPi (w/v). The unincorporated γ-^32 P-ATP was removed by washing in the same solution for at least 6 hours with 5 changes of buffer. The gel was dried onto 3 MM paper and exposed to Kodak XAR-5 film. Prestained size markers (Bio-Rad, CA) were used to calculate the size of the kinases. Quantitation of the relative kinase activities were done using a phosphoimager (Molecular Dynamics Inc., CA).

The test system of series [2] is PR gene expression and enhanced disease resistance. The following applies: Conrath et al., 1995; cited from earlier work.
In series [3] the target is T1, p48 SIP kinase (Nicotiana tabacum, UniProt A0A1S3Z5Y0).
T1 construct: endogenous in cells; host or cells: SA-treated tobacco suspension culture cells (purified through the poly-L-lysine agarose step)
Briefly: Kinetic properties, substrates, cofactors and pH dependence of p48 SIP kinase (in-solution kinase assay). Format: biochemical, tobacco. Conditions: for metal ion requirement of the enzyme: FIG. 10B; for use as phospho-donor / phosphate donor: data not shown. Here is the method: FIGS. 10A and 10B show a pair of graphs illustrating the effect of pH (FIG. 10A), Mg^2+ and Mn^2+ (FIG. 10B) on p48 SIP kinase activity. Approximately 0.5 unit of partially purified enzyme was used in each test. Buffers used for measuring the effect of pH were 50 mM 2-[N-morpholino]ethanesulfonic acid (Mes, pH 5.0-8.0, .circle-solid.), 50 mM Tris (pH 6.0-9.5, .tangle-solidup.), and 50 mM 3-[cyclohexylamino]-1-propanesulfonic acid (Caps, pH 9.0-12.0, .box-solid.). For testing the effects of Mg^2+ (.circle-solid.), and Mn^2+ (.tangle-solidup.), buffer B from the last purification step was first exchanged to Mg^2+ -free buffer using a desalting column. Mg^2+ was not added in reactions for testing the effect of Mn^2+.
FIG. 11 is a graph depicting the protein substrate preference of the p48 SIP kinase. About 0.5 unit of partially purified enzyme was used in each reaction. The assay conditions were as described below in Example 1, except various concentrations of MBP (.circle-solid.), histone (.tangle-solidup.), and casein (.box-solid.) were used.
(§1) Unless specifically indicated, assays were performed at room temperature for 20 minutes in a final volume of 15 μl containing 0.5 mg/mL of MBP, 50 μM of γ-^32 P-ATP (about 3000-6000 cpm/pmole), 25 mM Tris pH 7.5, 5 mM MgCl2, 1 mM EGTA, 1 mM DTT, and enzyme. The reaction was terminated by the addition of equal volume of 150 mM H3 PO4. Twenty μL of the mixture was spotted onto an 8-well phosphocellulose filter strip (Pierce, Ill.). After washing with 150 mM H3 PO4 extensively, the phospho-protein was eluted with 0.4 mL of 1 N NaOH, and the radioactivity was determined by liquid scintillation counting. Total cpm in the reaction mixture was also determined in order to calculate the specific activity of the enzyme preparation. One unit of p48 SIP kinase was defined as the amount of enzyme that will catalyze the transfer of 1 pmole of phosphate from ATP to MBP in 1 minute.

In series [4] the target is T1, p48 SIP kinase. As to the kind of experiment: In-solution kinase assay: effects of various reagents on p48 SIP kinase activity. Conditions: for activity at 5000 µM: 5 mM; for effect on p48 SIP kinase activity: partially purified p48 SIP kinase. Format: biochemical, tobacco. On the procedure:
as §1
^a For each reagent, a dose response curve was measured under standar
assay conditions. About 0.5 unit of enzyme was used for each reaction.
Control was the enzyme activity in the absence of reagent.

Series [5] has as its target p48 SIP kinase (salicylic acid-induced protein kinase), activated form from SA- or H2O2-treated tobacco cells, in extracts or purified (tobacco (Nicotiana tabacum cv Xanthi nc)).
Setting [6] is: 20 min, pH 7.5, read-out: Relative Activity.

T1 sequence (A0A1S3Z5Y0 whole entry): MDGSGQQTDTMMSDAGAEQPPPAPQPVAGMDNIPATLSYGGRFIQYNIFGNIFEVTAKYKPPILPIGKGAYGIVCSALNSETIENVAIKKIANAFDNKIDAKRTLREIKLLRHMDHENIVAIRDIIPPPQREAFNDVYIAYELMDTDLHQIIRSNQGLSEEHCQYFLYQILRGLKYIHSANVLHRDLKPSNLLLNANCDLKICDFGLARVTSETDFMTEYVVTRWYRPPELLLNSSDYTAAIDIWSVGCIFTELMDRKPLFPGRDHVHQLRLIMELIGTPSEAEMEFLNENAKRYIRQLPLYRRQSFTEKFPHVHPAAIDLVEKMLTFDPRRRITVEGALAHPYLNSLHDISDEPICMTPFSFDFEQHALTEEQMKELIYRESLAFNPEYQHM

With `O=C(O)c1cc(Cl)ccc1O` [5-CSA], in series [1], the “activation of 48 kDa (p48 SIP) kinase” value is “activated the SIP kinase to similar extents as SA” and the “duration of SIP kinase activation relative to SA” value is listed as “more sustained activation of the SIP kinase than SA”. For the same compound, the “induction of PR gene expression and enhanced disease resistance” value in series [2] was “induce PR gene expression and enhanced disease resistance in tobacco”.

In the case of `[Mg+2]` [Mg^2+], the “metal ion requirement of the enzyme” value in series [3] is reported as “absolute requirement”. In addition, the “MgCl2 concentration up to which kinase activity was strongly stimulated” value in series [3] (total concentration) was at most 2 mM.

With `CN(C)C(=O)/N=N/C(=O)N(C)C` [Diamide], the activity at 5000 µM in series [4] (setting [6]) came to 50%.

As for `COC(=O)[C@@]1(O)C[C@H]2O[C@]1(C)n1c3ccccc3c3c4c(c5c6ccccc6n2c5c31)C(=O)NC4` [K-252a], half-maximal inhibition in series [4] (IC50) required 12 nM. Further, the activity at 0.012 µM in series [4] (setting [6]) is 50%.

With `CN[C@@H]1C[C@H]2O[C@@](C)([C@@H]1OC)n1c3ccccc3c3c4c(c5c6ccccc6n2c5c31)C(=O)NC4` [Staurosporine, staurosporine], half-maximal inhibition in series [4] (IC50) was put at 60 nM. Moreover, the activity at 0.06 µM in series [4] (setting [6]) was determined as 50%.

Consider `[Na+]` [Na^+], for which the “Relative Activity” value in series [4] (100 mM, 20 min) is 100 % of control; in series [4] (750 mM, 20 min), 50 % of control.

For `O=C(O)c1cccc(O)c1` [3-HBA, 3-hydroxybenzoic acid], the “activation of 48 kDa (p48 SIP) kinase” value in series [1] was “poor activators”.

`[Ca+2]` [Ca^2+]: the “Relative Activity” value is recorded as 100 % of control in series [4] (0.5 mM, 20 min) and 50 % of control in series [4] (5.0 mM, 20 min). For the same compound, in series [4], the “effect on p48 SIP kinase activity” value is “inhibited the enzyme”. Besides, the “calcium requirement for activity” value in series [3] is recorded as “lacks a calcium requirement for activity”.

As for protamine, in series [5], the Relative Activity % of control (% of control at 25 µg mL^-1) is 50.

In the case of Protamine, in series [4] (25 μg mL^-1), the “Relative Activity” value is recorded as 50 % of control. In series [4], the “effect on p48 SIP kinase activity” value is on record as “showed inhibitory effects”.

Consider `[Mn+2]` [Mn^2+], for which the “metal ion requirement of the enzyme” value in series [3] is given as “could not substitute for Mg^2+”.

`O=C(O)c1ccc(Cl)cc1O` [4-CSA, 4-chloroSA]: in series [1], the “activation of 48 kDa (p48 SIP) kinase” value is listed as “activated the SIP kinase to similar extents as SA” and the “duration of SIP kinase activation relative to SA” value is “more sustained activation of the SIP kinase than SA”. Besides, the “induction of PR gene expression and enhanced disease resistance” value in series [2] is “induce PR gene expression and enhanced disease resistance in tobacco”.

On to `Nc1ncnc2c1ncn2[C@@H]1O[C@H](COP(=O)(O)OP(=O)([O-])OP(=O)([O-])O)[C@@H](O)[C@H]1O.[Mg+2]` [Mg^2+ -ATP], for which, in series [3], the Vmax is 0.39 µmol/min/mg. Moreover, the Km in series [3] (Mg^2+ -ATP) was determined as 24 µM.

`O=C(O)CN(CCOCCOCCN(CC(=O)O)CC(=O)O)CC(=O)O` [EGTA]: the activity at 10000 µM in series [4] (20 min, pH 7.5, 10 mM, read-out: Relative Activity) stood at 100%. For the same compound, the “effect on p48 SIP kinase activity” value in series [4] is listed as “no effect on its activity”.

For Poly-L-glutamine [listing 1 of 2 here], the “Relative Activity” value in series [4] (500 μg mL^-1, 20 min) is recorded as 100 % of control. For the same compound, the “effect on p48 SIP kinase activity” value in series [4] is given as “showed no effect at the concentrations tested”.

For the compound Poly-L-lysine [listing 1 of 2 here], the “Relative Activity” value in series [4] (25 μg mL^-1, 20 min) is on record as 50 % of control. The “effect on p48 SIP kinase activity” value in series [4] is recorded as “showed inhibitory effects”.

On to Poly-L-glutamate [listing 1 of 2 here], for which, in series [5], the Relative Activity % of control (% of control at 500 µg mL^-1) came to 50.

On to Heparin, for which, in series [4] (50 μg mL^-1, 20 min), the “Relative Activity” value is given as 50 % of control. Moreover, in series [4], the “effect on p48 SIP kinase activity” value is reported as “showed inhibitory effects”.

As to `Nc1nc2c(ncn2[C@@H]2O[C@H](COP(=O)(O)OP(=O)(O)OP(=O)(O)O)[C@@H](O)[C@H]2O)c(=O)[nH]1` [Mg^2+ -GTP], the “use as phospho-donor / phosphate donor” value is reported as “could not use” in series [3] and “unable to use GTP as a phosphate donor” in series [3] (listed as GTP).

With `NCCCCNCCCN` [Spermidine, spermidine], in series [4] (20 min, pH 7.5, 1 mM, read-out: Relative Activity), the activity at 1000 µM amounted to 100%. In addition, the “effect on p48 SIP kinase activity” value in series [4] is on record as “showed no effect at the concentrations tested”.

On to `[Zn+2]` [Zn^2+], for which the “Relative Activity” value in series [4] (0.10 mM, 20 min) is on record as 100 % of control; in series [4] (0.25 mM, 20 min) it was 50 % of control. In series [4], the “effect on p48 SIP kinase activity” value was “inhibited the enzyme”.

On to Poly-L-glutamate [listing 2 of 2 here], for which the “Relative Activity” value in series [4] (500 μg mL^-1, 20 min) is 50 % of control. In series [4], the “effect on p48 SIP kinase activity” value is given as “showed inhibitory effects”.

For the compound Poly-L-glutamine [listing 2 of 2 here], the Relative Activity % of control (% of control at 500 µg mL^-1) in series [5] came to 100.

With `O=c1c(-c2ccc(O)cc2)coc2cc(O)cc(O)c12` [Genistein, genistein], the activity at 20 µM in series [4] (20 min, pH 7.5, 20 μM, read-out: Relative Activity) is 100%. In series [4], the “effect on p48 SIP kinase activity” value is reported as “no effect on its activity”.

In the case of Poly-L-lysine [listing 2 of 2 here], the Relative Activity % of control (% of control at 25 µg mL^-1) in series [5] was 50.

Consider `O=C(O)c1ccc(O)cc1` [4-HBA], for which the “activation of 48 kDa (p48 SIP) kinase” value in series [1] is recorded as “poor activators”.

On to `OC(CS)C(O)CS` (centres unmarked) [DTT], for which, in series [4] (setting [6]), the activity at 5000 µM is 100%.
